From paper PMC5562805, “Overcoming the plasticity of plant specialized metabolism for selective diterpene production in yeast” (Scientific Reports, 2017)

Biological target: T1, CYP76AK6 (Salvia pomifera, UniProt A0A0S1TPC7)
T1 construct: expressed in S. cerevisiae (pESC-Trp) with CYP76AH24 variant and Populus trichocarpa CPR2
T1 sequence (A0A0S1TPC7 1-500): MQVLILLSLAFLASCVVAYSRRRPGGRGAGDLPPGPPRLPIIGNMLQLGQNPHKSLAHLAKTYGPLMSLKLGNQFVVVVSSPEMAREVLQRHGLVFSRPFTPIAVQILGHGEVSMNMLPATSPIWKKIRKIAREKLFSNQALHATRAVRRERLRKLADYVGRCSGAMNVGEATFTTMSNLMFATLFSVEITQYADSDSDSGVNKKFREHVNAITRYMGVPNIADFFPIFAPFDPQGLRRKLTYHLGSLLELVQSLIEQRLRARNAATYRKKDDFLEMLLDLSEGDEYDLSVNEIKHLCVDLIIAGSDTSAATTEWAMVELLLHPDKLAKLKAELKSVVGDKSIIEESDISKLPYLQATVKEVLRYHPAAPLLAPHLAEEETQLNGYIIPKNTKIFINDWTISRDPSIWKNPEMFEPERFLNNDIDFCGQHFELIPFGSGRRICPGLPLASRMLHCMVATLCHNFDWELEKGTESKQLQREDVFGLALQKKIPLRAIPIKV
Test: product titre in engineered yeast cells, GC
Assay type: cell-based
Details: C-20 oxidation to pisiferic acid; co-expressed CYP76AH24(F112L), CPR2, Cytb5

CC(C)c1cc2c(cc1O)[C@@]1(C)CCCC(C)(C)[C@@H]1CC2 [ferruginol]
product titre in engineered yeast cells, GC: CYP76AH24(F112L) variant enabled the complete shift from carnosic acid to pisiferic acid production in yeast
